Laboratory results as given in ChEMBL document CHEMBL2150891, “Compounds and Their Use as BACE Inhibitors: Patent Highlight” (ACS Med Chem Lett, 2012).

Assays:
[1] = biological target: T1, Beta-secretase 1 (Homo sapiens, UniProt P56817); assay: Inhibition of BACE by TR-FRET assay
[2] = biological target: T1, Beta-secretase 1; assay: Inhibition of BACE by secreted APPbeta release assay

T1 sequence (P56817 whole entry): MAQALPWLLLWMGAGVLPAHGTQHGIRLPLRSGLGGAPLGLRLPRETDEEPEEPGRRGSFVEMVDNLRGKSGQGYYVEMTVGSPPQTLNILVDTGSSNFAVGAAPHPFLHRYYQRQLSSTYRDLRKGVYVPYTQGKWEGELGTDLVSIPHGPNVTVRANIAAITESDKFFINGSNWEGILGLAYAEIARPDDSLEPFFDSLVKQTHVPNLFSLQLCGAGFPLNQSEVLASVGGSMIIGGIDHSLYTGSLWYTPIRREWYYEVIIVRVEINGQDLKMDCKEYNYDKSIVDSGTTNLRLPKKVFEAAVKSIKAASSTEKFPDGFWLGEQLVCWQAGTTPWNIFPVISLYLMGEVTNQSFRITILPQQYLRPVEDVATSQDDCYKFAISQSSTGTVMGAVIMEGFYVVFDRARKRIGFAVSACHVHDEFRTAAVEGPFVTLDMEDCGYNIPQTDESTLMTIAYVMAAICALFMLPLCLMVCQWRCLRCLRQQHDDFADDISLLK

IC50 [1]: 1.4 nM | IC50 [2]: 2.2 nM
SMILES: CC#Cc1cncc(-c2ccc3c(c2)C2(N=C(C)C(N)=N2)C2(CCC(OC)CC2)O3)c1 (configuration not stated)
